Here are results for 2 compounds from patent US9364454B2, “Anti-inflammatory actions of neuroprotectin D1/protectin D1 and its natural stereoisomers” (The Brigham and Women's Hospital, Inc., priority 2005, dated 2016).

Assay [1] has as its system human PMN transmigration across endothelial cells. Briefly: Human PMN transmigration across HMEC monolayers, LTB4-induced. Conditions: for effect on LTB4-induced PMN transmigration (in words): compound 15 min, LTB4 10^-8 M 90 min. It is filed as cell-based. How it is done:
PMN were freshly isolated from whole blood obtained by venipuncture from healthy human donors (who denied taking medication for 2 weeks prior to donation; BWH protocol no. 88-02642) and anti-coagulated with acid citrate dextrose as in (40, 41). Briefly, plasma and mononuclear cells were removed by aspiration from the buffy coat after centrifugation (400 g; 20 min) at room temperature. Histopaque (density 1.077) was from Sigma-Aldrich (St. Louis, Mo.). RBCs were sedimented using 2% gelatin, and residual RBCs were removed by lysis in ice-cold NH4Cl buffer. The cell suspensions were >90% PMN as determined by light microscopic evaluation. PMN were suspended at 5×10^7 cells/ml in HBSS with 10 mM Hepes, pH 7.4, and without Ca^2+ or Mg^2+ (Sigma-Aldrich, St. Louis, Mo.). PMN were used within 2 hours of their isolation.
Human Microvascular Endothelial Cells (HMEC; a gift from Francisco Candal of the Centers for Disease Control, Atlanta, Ga.) were obtained as primary cultures. For preparation of experimental HMEC monolayers, confluent endothelial cells were grown on 0.33 cm^2 ring-supported polycarbonate filters (5 μm pore size; Costar Corp., Cambridge, Mass.) in the apical-to-basolateral direction. Cells were grown for ˜1 week prior to transmigration experiments.
Transmigration was conducted essentially as in ref. (41). PMN were incubated with either vehicle-containing buffer or compound for 15 minutes at 37° C. A chemotactic gradient was established by placing HMEC inserts that had been washed in HBSS with Ca^2+ and Mg^2+ (denoted +/+) in 10^−8M LTB4 in the lower chambers. Neutrophils (10^6 cells) were added to 50 μl HBSS +/+ in the upper chambers and cells were incubated at 37° C. for 90 min. Transmigrated PMN were quantified by assessing the PMN azurophilic marker myeloperoxidase and a calibration curve. PMN were lysed by the addition of Triton X-100 to a final concentration of 0.5%. The samples were acidified with citrate buffer (final concentration 100 mM, pH 4.2). An aliquot of each sample was added to an equal volume of ABTS solution (1 mM ABTS [2′-azino-bis(3-ethylbenzo-thiazoline-6-sulfonic acid)], 0.03% H2O2, 100 mM sodium citrate buffer, pH 4.2) in a 96-well plate. The resulting color was monitored using a plate reader at 405 nm and a calibration curve for cell number.

In assay [2] the test system is FVB male mice. Nature of the assay: Acute inflammatory exudates: zymosan A murine peritonitis (leukocyte infiltration). The class given is in vivo, mouse. Conditions: for activity on PMN infiltration (in words): 1 ng/mouse dose; for anti-inflammatory potency in vivo, PMN infiltration (in words): dose range tested (FIG. 6), lavage at 2 h. How it is done:
Peritonitis was carried out using 6-8 week-old FVB male mice (Charles River Laboratories) fed laboratory Rodent Diet 5001 (Purina Mills) that were anesthetized with isoflurane, and compounds to be tested were administered intraperitoneally. […] Each compound tested or vehicle alone was suspended in 1 μl ethanol and mixed in sterile saline (120 μl). After intraperitoneal injections (either 2 or 4 hours of acute inflammation), the mice were sacrificed in accordance with the Harvard Medical Area Standing Committee on Animals protocol no. 02570, and peritoneal lavages were collected rapidly and placed in an ice bath (4° C.) for enumeration, differential counts, and further analysis.

For assay [3], the system named is male FvB mice. The class given is in vivo. As for the experimental part: (§1) Five to seven week old male FvB mice (Charles River Laboratories) were housed in isolation cages under viral antibody-free conditions. Mice were fed a standard diet (Laboratory Rodent Diet 5001, PMI Nutrition International) that contained no less than 4.5% total fat with 0.26% omega-3 fatty acids and <0.01% C20:4. After Harvard Medical Area IRB approval (Protocol #02570), mice were sensitized with intraperitoneal injections of ovalbumin (OVA) (Grade III; Sigma Chemical Co.) (10 μg) plus 1 mg aluminum hydroxide (ALUM) (J.T. Baker Chemical Co.) as adjuvant in 0.2 ml PBS on days 0 and 7. On days 14, 15, 16 and 17, the mice received PD1 (2, 20 or 200 ng) (a product of biogenic synthesis (52)) or PBS with 1.6 mM CaCl2 and 1.6 mM MgCl2 (0.1 ml) by intravenous injection 30 min prior to an aerosol challenge containing either PBS or 6% OVA for 25 min/day. Matching experiments were performed with 20 ng PD1 prepared by total organic synthesis (62).
On day 18, 24 h after the last aerosol challenge, either airway responsiveness to aerosolized methacholine (0, 20, 50 and 75 mg, 10 sec) was measured, bilateral bronchoalveolar lavage (BAL) (2 aliquots of 1 ml PBS plus 0.6 mM EDTA) was performed or tissues were harvested for histological analysis. Lung resistance was measured using a Flexivent ventilator (SciReq). Resistance was measured as a function of time for each animal, and peak and average values for each dose of methacholine were recorded. […]
Murine lungs were fixed in 10% buffered formalin and paraffin embedded for hematoxylin and eosin and periodic acid Schiff staining (Sigma Chemical Co.). […] Three fields per slide were examined at 200× magnification for vessels, large airways and alveoli with EOS counted at 400× magnification in randomly assigned fields. […] Measurement of inflammatory mediators was determined in cell-free BAL fluid (BALF) (2000 g, 10 min) by sensitive and specific ELISAs, in tandem, for interleukin-5 (IL-5), IL-12, IL-13, PGD2 (R&D Systems), cysteinyl LTs, (Cayman Chemical Co.), and LXA4 (Neogen). […]

For assay [4], the system named is male FvB mice. Nature of the assay: Airway responsiveness to aerosolized methacholine in OVA-sensitized/challenged mice. It is filed as in vivo, mouse. How it is done:
as §1
On day 18, 24 h after the last aerosol challenge, either airway responsiveness to aerosolized methacholine (0, 20, 50 and 75 mg, 10 sec) was measured, bilateral bronchoalveolar lavage (BAL) (2 aliquots of 1 ml PBS plus 0.6 mM EDTA) was performed or tissues were harvested for histological analysis. Lung resistance was measured using a Flexivent ventilator (SciReq). Resistance was measured as a function of time for each animal, and peak and average values for each dose of methacholine were recorded. No BAL or histological analysis was performed on those animals undergoing airway hyper-responsiveness or lipid extraction studies.

For assay [5], the system named is male FvB mice. Nature of the assay: PD1 given after aeroallergen challenge (days 18-20), BAL on day 21. The class given is in vivo, mouse. As for the experimental part: In select experiments, animals were sensitized and aeroallergen challenged for four days prior to receiving PD1 (20 ng) or PBS by intravenous injection (0.1 ml) on days 18, 19 and 20. On day 21, bilateral BAL was performed.
Murine lungs were fixed in 10% buffered formalin and paraffin embedded for hematoxylin and eosin and periodic acid Schiff staining (Sigma Chemical Co.). Tissue morphometry was performed by a member (K. Haley) of the Lung Histopathology Core Laboratory at Brigham and Women's Hospital who was blinded to the experimental conditions prior to histological analyses. Three fields per slide were examined at 200× magnification for vessels, large airways and alveoli with EOS counted at 400× magnification in randomly assigned fields. Vessels were identified by perivascular smooth muscle, and large airways were identified by at least ½ their diameter either cuboidal or columnar epithelia. Measurement of inflammatory mediators was determined in cell-free BAL fluid (BALF) (2000 g, 10 min) by sensitive and specific ELISAs, in tandem, for interleukin-5 (IL-5), IL-12, IL-13, PGD2 (R&D Systems), cysteinyl LTs, (Cayman Chemical Co.), and LXA4 (Neogen). Cells in BALF were resuspended in PBS, enumerated by hemocytometer, and concentrated onto microscope slides by cytocentrifuge (STATspin) (265 g). […]

Assay [6] concerns FVB male mice. Conditions: cited from earlier work.

“Also recorded” adds a separate entry of the source. Where two headings read alike, the source gives them in different places.

As for `CC/C=C\C[C@H](O)/C=C/C=C/C=C/[C@H](O)C/C=C\C/C=C\CCC(=O)O` [Compound III, 10R,17S-dihydroxy-docosa-4Z,7Z,11E,13E,15E,19Z-hexaenoic-acid], the results for the “effect on LTB4-induced PMN transmigration (in words)” value in assay [1], in assay [1] (listed as 415-trans-PD1) and in assay [1] (listed as Δ15-trans isomer of PD1) were “possesses little bioactivity in vitro or in vivo”, “essentially inactive” and “did not block PMN transmigration in vitro”, respectively. Also, the “rank order of potency” value with FVB male mice [2] (0.1 ng dose) is on record as “Compound VI>>PD1>10S,17S-DT (the double dioxygenation product)>the Δ15-trans-PD1>>Compound V”; with FVB male mice [2] (1-10 ng dose), “PD1≈PD1 methyl ester>>Δ15-trans PD1>10S,17S-diHDHA (isomer I)”. The “activity on PMN infiltration (in words)” value in the assay on FVB male mice [2] is given as “substantially less potent”. The “anti-inflammatory potency in vivo, PMN infiltration (in words)” value in the assay on FVB male mice [2] is “possesses little bioactivity in vitro or in vivo”.
For `CC/C=C\C[C@H](O)\C=C/C=C/C=C/[C@H](O)C/C=C\C/C=C\CCC(=O)O` [PD1, 10R,17S-dihydroxy-docosa-4Z,7Z,11E,13E,15Z,19Z-hexaenoic acid], in assay [1] (1.0 nM, in response to leukotriene B4), the “inhibition of PMN transmigration” value is 30%. Besides, the “attenuation of human neutrophil transmigration” value in assay [1] (10 nM, LTB4 10^-8 M, 90 min) is listed as roughly 50%. In assay [1] (10-100 nM, in vitro), the “reduction of PMN transmigration” value is listed as 35-45%. In addition, in assay [1] (HMEC monolayers, neutrophils from >5 separate donors, each experiment), the “highest degree of inhibition of neutrophil transmigration observed” value was no more than 50%. Further, the “effect on LTB4-induced PMN transmigration (in words)” value in assay [1] is “reduced PMN transmigration; also recorded: inhibited LTB4-induced PMN migration; also recorded: stereoselectively reduces PMN transmigration in vitro”. For the same compound, the “rank order of potency” value in the assay with FVB male mice [2] (0.1 ng dose) is recorded as “Compound VI>>PD1>10S,17S-DT (the double dioxygenation product)>the Δ15-trans-PD1>>Compound V”; in the assay with FVB male mice [2] (1-10 ng dose) it was “PD1≈PD1 methyl ester>>Δ15-trans PD1>10S,17S-diHDHA (isomer I)”. In addition, the “activity on PMN infiltration (in words)” value with FVB male mice [2] is “striking inhibition of PMN infiltration”. In the assay on FVB male mice [2] (1 ng/mouse i.p. 2 h after zymosan A, lavage at 4 h), the “PMN infiltration when given after initiation of inflammation (in words)” value is on record as “diminished infiltration of PMN; also recorded: reduces PMN infiltration; also recorded: reduced PMN infiltration after initiation (2 h) of inflammation”. The “inhibition of PMN infiltration” value with FVB male mice [2] (1 ng/mouse, peritonitis) is reported as roughly 40%; with FVB male mice [2] (10 ng and 100 ng doses (maintained)), roughly 40%; with FVB male mice [6] (100 ng/mouse, i.v., earlier experiments (ref 1)) it was roughly 40%. Further, the “kind of joint anti-inflammatory action of PD1 and RvE1” value with FVB male mice [2] (10 ng/mouse i.p. of either or both, 2 h) is listed as “additive rather than synergistic”. Further, the “PMN infiltration, PD1 and RvE1 administered together (in words)” value in the assay on FVB male mice [2] (10 ng/mouse i.p., exudates at 2 h) is recorded as “reduced the infiltration of PMN”. Moreover, the “PMN infiltration (in words)” value in the assay with FVB male mice [2] (10 ng/mouse, 4 h after injection (FIG. 9)) is given as “reduced PMN infiltration; also recorded: Statistically different from *zymosan A-injected mice”. Also, in the assay on FVB male mice [2], the “anti-inflammatory potency in vivo, PMN infiltration (in words)” value is listed as “dramatically reduced the infiltration of PMN into the peritoneum; also recorded: more potent than the dioxygenation product; also recorded: potent regulator of PMN infiltration in vivo”. Besides, the “blocking of further PMN infiltration” value with FVB male mice [2] (given 2 h after zymosan A challenge) is reported as greater than 90%. In addition, the “recruitment of monocytes and lymphocytes to exudates (in words)” value in the assay on FVB male mice [2] (peritonitis, differential counts) is “increased the non-phlogistic recruitment of monocytes and lymphocytes; also recorded: regulated both monocyte and lymphocyte traffic”. Besides, the “EOS and Lymphs in the peribronchial regions and airspaces (histology)” value with male FvB mice [3] (2, 20 or 200 ng i.v., versus vehicle) is “substantially less EOS and Lymphs”. The “EOS tissue infiltration around vessels and in large and peripheral airways (morphometry)” value with male FvB mice [3] (PD1 i.v. prior to challenge) is recorded as “significant decreases”. Further, the EOS trafficking entry with male FvB mice [3] (as little as 2 ng of PD1) is recorded as “reduced”. Also, the “shape of dose response, protection on airway hyper-responsiveness” value in the assay with male FvB mice [4] (2, 20, 200 ng) is given as “bell-shaped dose response with maximal protection”. The “log ED200 for the mean airway resistance” value with male FvB mice [4] (2, 20 and 200 ng, compared with vehicle) was “significantly increased”. The “airway hyper-responsiveness: peak and average lung resistance in response to methacholine” value in the assay on male FvB mice [4] (PD1 0-200 ng i.v. prior to OVA challenge) is “decreased both peak and average lung resistance; also recorded: dampened; also recorded: reduces airway hyper-responsiveness”. For the same compound, in the assay with male FvB mice [4] (following allergen challenge (data not shown)), the “lung elastance or compliance” value was “no significant changes”. Moreover, in the assay with male FvB mice [4] (mouse, in vivo), the “airway responses of control animals that received PBS rather than allergen” value is recorded as “no significant impact”. In addition, the “numbers of total leukocytes, Eos and Lymphs in BALFs” value in the assay with male FvB mice [5] (20 ng iv once a day for three days after challenge, day 21) is “significant decrements”. Further, the “resolution of allergic airway inflammation (in words)” value with male FvB mice [5] (PD1 treatment after aeroallergen challenge) is listed as “has the capacity to accelerate resolution of allergic airway inflammation; also recorded: promoted the resolution of airway inflammation; also recorded: promotes resolution of allergen-driven leukocytes; also recorded: markedly accelerated the resolution of airway inflammation”. For the same compound, the “apparent maximal response, reduction of PMN infiltration” value in the assay on FVB male mice [6] (doses as low as 100 ng/mouse (ref 1)) is roughly 50%. In the assay on FVB male mice [6] (i.v., earlier experiments (ref 1)), the “potency versus indomethacin in reducing PMN infiltration” value is “more potent than indomethacin”.
